Test results from patent US10059663B2, “Aromatic compound and use thereof” (Kyoto Pharmaceutical Industries, Ltd., priority 2013, dated 2018).

How the values were obtained:
[1] = system: Mouse bone marrow-derived mesenchymal cell line ST2 cells; experiment: Osteoblast differentiation test (alkaline phosphatase activity); type: cell-based; settings: ST-2, 96 h, at 0.1 μg/mL, 4 days of culture, absorbance at 405 nm, DMSO control = 100%, read-out: alkaline phosphatase activity (increase rate in absorbance, control as 100%)
Experimental: Mouse bone marrow-derived mesenchymal cell line ST2 cells (source of supply: RIKEN) were seeded in α-MEM medium containing 10% fetal bovine serum (source of supply: GIBCO BRL Cat. No. 12000-022) in a 96 well plate at a cell density of 4×10^3 cells/0.1 mL/well, and cultured for 24 hr under the conditions of 37° C., 5% CO2. Then, each test compound was added at a final concentration of 0.001-10 μM, and the final concentration 0.1% (v/v) of DMSO was added to the control. After 4 days of culture, alkaline phosphatase (ALP) activity was measured by the following method.
The medium in the cultured 96 well plate was removed, the cells were washed with PBS buffer (KCl 0.2 g/L, KH2PO4 0.2 g/L, Na2HPO4.12H2O 2.9 g/L, NaCl 8 g/L) (100 μL/well), cell lysate (10 mM MgCl2, 2% (v/v) Triton X-100) (50 μL/well) was added, and the mixture was stirred at room temperature for 3 min. A substrate solution (50 mM diethanolamine (Wako Pure Chemical Industries, Ltd. Cat. No. 099-03112), 20 mM […] (Nacalai Tesque Cat. No. 25019-81)) (50 μL/well) was added, and the mixture was left standing at room temperature for 9 min. 1N NaOH 50 μL/well was added to discontinue the reaction, and the absorbance at 405 nm was measured by a microplate reader (Dainippon Pharmaceutical Co., Ltd.)
An increase rate (%) in the absorbance by the test compound was calculated based on the absorbance of the control as 100%, and the differentiation degree of the osteoblast was evaluated.

female F344 rats = experiment: Influence on bone density (ovariectomy, femur, DXA); type: in vivo, rat; settings: at not more than 10 mg/kg; orally once per day, 6 or 7 days per week, 8 weeks; ovariectomized 12-week-old female F344 rats; femur by DXA
Description: 12-week-old female F344 rats (SLC) underwent ovariectomy or sham surgery under anesthesia. The test compound was suspended in 0.5% methylcellulose solution (Wako Pure Chemical Industries, Ltd. Cat. No. 133-14255) and orally administered once per day, 6 or 7 days per week, from two days after the surgery. A 0.5% methylcellulose solution was orally administered to a control group. At 8 weeks from the administration, they were euthanized by drawing the whole blood from the abdominal artery under anesthesia, and the left and right femurs were excised.
The soft tissues were removed from the excised femurs, and the bone density was measured by DXA device DCS-600R (Aloka Co., Ltd.). The bone density was evaluated for the whole femur as well as the whole divided into three equal portions of proximal end, diaphysis and distal end portion.

Row | Structure (SMILES) | activity at 0.1 µg/mL [1] | bone density (female F344 rats)
1 | CC(O)c1ccc(C(N)=O)cc1Oc1ccc(OCCOC2CCOCC2)cc1 (centres unmarked) [Example 38, 4-(1-hydroxyethyl)-3-{4-[2-(tetrahydropyran-4-yloxy)ethoxy]phenoxy}benzamide] | ≥ 200% | significantly increased
2 | C[C@@H](O)c1ccc(C(N)=O)cc1Oc1ccc(OCCOC2CCOCC2)cc1 [Example 43, (R)-4-(1-hydroxyethyl)-3-{4-[2-(tetrahydropyran-4-yloxy)ethoxy]phenoxy}benzamide] | ≥ 200% | significantly increased
3 | CC(=O)c1ccc(C(N)=O)cc1Oc1ccc(OCCOC2CCOC2)cc1 (centres unmarked) [Example 67] | ≥ 200% | significantly increased
4 | C[C@@H](O)c1ccc(C(N)=O)cc1Oc1ccc(OCCOC2CCOC2)cc1 (some centres unmarked) [Example 77] | ≥ 200% | significantly increased
